Literature values, collected in patent US20150196488A1, “Topical Foam Composition” (priority 2009, published 2015).

Details: alcohol, ethyl acetate, chloroform and toluene

solubility in organic solvents: soluble
Compound: CO[C@H]1/C=C/O[C@@]2(C)Oc3c(C)c(O)c4c(O)c(c5c(nc6cc(C)ccn65)c4c3C2=O)NC(=O)/C(C)=C\C=C\[C@H](C)[C@H](O)[C@@H](C)[C@@H](O)[C@@H](C)[C@H](OC(C)=O)[C@@H]1C [Rifaximin, (2S,16Z,18E,20S,21S,22R,23R,24R,25S,26S,27S,28E)-5,6,21,23,25-pentahydroxy-27-methoxy-2,4,11,16,20,22,24,26-octamethyl-2,7-(epoxypentadeca-[1,11,13]trienimino)benzofuro[4,5-e]pyrido[1,2-a]-benzimida-zole-1,15(2H)-dione,25-acetate]
